21 compounds from patent publication US9999616B2 (ZENITH EPIGENETICS LTD., priority 2013, dated 2018) can be followed below.

For experiment [1], the system named is c-myc in Human AML MV4-11 cells. The experiment can be described thus: Inhibition of cMYC expression (mRNA, real-time PCR) in MV4-11 cells. The settings on record: 3 h treatment, cMYC mRNA by real-time PCR. It counts as cell-based. The essentials:
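MV4-11 cells in IMDM with 10% FBS were treated with increasing compound concentrations (DMSO 0.1%) for 3 h at 37 °C, in triplicate. Isolated mRNA was quantified by one-step TaqMan RT-qPCR, cMYC Ct normalized to cyclophilin, and fold expression given relative to DMSO control.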

In a further experiment the test system is Human AML MV-4-11 cells. Put plainly: Inhibition of cell proliferation in MV4-11 cells (CellTiter Aqueous One). It counts as cell-based. The settings on record: for IC50: MV4-11, 72 h; for Cell Proliferation activity: 72 h. In short, it runs like this:
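MV4-11 cells, 5×10^4 per well in IMDM with 10% FBS, were exposed to increasing compound concentrations or 0.1% DMSO for 72 h at 37 °C in triplicate. Viability was read by MTS (CellTiter Aqueous One) absorbance at 490 nm after 3-4 h. IC50 was derived from background-corrected signal relative to DMSO.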

Another experiment concerns hIL-6 mRNA. The experiment can be described thus: Inhibition of hIL-6 mRNA transcription in LPS-stimulated U937 macrophages. It is filed as cell-based, Human. Particulars: Homo sapiens, U-937, PMA-differentiated U937 cells, 1 h pretreatment, LPS 3 h, read-out: IL-6 activity. As to the method:
Human leukemic monocyte lymphoma U937 cells (CRL-1593.2) were plated at a density of 3.2×10^4 cells per well in a 96-well plate in 100 μL RPMI-1640 containing 10% FBS and penicillin/streptomycin, and differentiated into macrophages for 3 days in 60 ng/mL PMA ([…]) at 37° C. in 5% CO2 prior to the addition of compound. The cells were pretreated for 1 h with increasing concentrations of test compound in 0.1% DMSO prior to stimulation with 1 ug/mL lipopolysaccharide from Escherichia coli. Triplicate wells were used for each concentration. The cells were incubated at 37° C., 5% CO2 for 3 h before the cells were harvested. At time of harvest, media was removed and cells were rinsed in 200 μL PBS. Cells were harvested using the mRNA Catcher PLUS kit according to manufacturer's instructions. The eluted mRNA was then used in a one-step quantitative real-time PCR reaction using components of the RNA UltraSense™ One-Step Kit (Life Technologies) together with Applied Biosystems TaqMan® primer-probes for hIL-6 and Cyclophilin. Real-time PCR plates were run on a ViiA™7 real time PCR machine (Applied Biosystems), data was analyzed, normalizing the Ct values for hlL-6 to an internal control, prior to determining the fold expression of each sample, relative to the control.

Experiment [2] has as its target Brd4 bromodomain 1 (BRD4(1)) (Homo sapiens, UniProt O60885). The experiment can be described thus: Inhibition of tetra-acetylated histone H4 binding to Brd4 bromodomain 1, measured by FRET (HTRF). The settings on record: 2 h at room temperature. The arrangement: made in house; host or cells: E. coli BL21(DE3). The essentials:
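Inhibition was read as a drop in 665 nm relative to 620 nm HTRF signal after 2 h at room temperature, with IC50 from dose-response curves in duplicate wells. Reactions held 200 nM E. coli-expressed His-tagged bromodomain and 25-50 nM biotinylated tetra-acetylated histone H4 peptide. Buffer was 30 mM HEPES pH 7.4 with KF, CHAPS, BSA and 0.2% DMSO.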
In general terms: Time-resolved FRET reads energy transfer from a long-lived donor to a nearby acceptor.

Regarding `Cc1ccncc1-c1cc(-c2c(C)noc2C)cc2cn[nH]c12` [Example Compound 119, 3,5-dimethyl-4-(7-(4-methyl-pyridin-3-yl)-1H-indazol-5-yl)isoxazole], the IC50 was 300 to 3000 nM in experiment [1], 300 to 3000 nM with Human AML MV-4-11 cells, not above 300 nM in the experiment on hIL-6 mRNA and not above 300 nM in experiment [2].
`Cc1nc2c(-c3cc(C(N)=O)ccc3C)cc(-c3c(C)noc3C)cc2[nH]1` [Example Compound 74, 3-(6-(3,5-dimethyl-isoxazol-4-yl)-2-methyl-1H-benzo[d]imidazol-4-yl)-4-methyl benzamide]: the IC50 in experiment [1] is 300 to 3000 nM; in the experiment with Human AML MV-4-11 cells, 300 to 3000 nM; in the experiment with hIL-6 mRNA, 300 to 3000 nM; in experiment [2], not above 300 nM.
Regarding `Cc1nc2c(-c3ncccc3C)cc(-c3c(C)noc3C)cc2[nH]1` [Example Compound 84, 3,5-dimethyl-4-(2-methyl-4-(3-methyl-pyridin-2-yl)-1H-benzo[d]imidazol-6 yl)isoxazole], the IC50 was in the range of 300 to 3000 nM in experiment [1], 3000 to 30000 nM in the experiment with Human AML MV-4-11 cells, 300 to 3000 nM in the experiment on hIL-6 mRNA and 300 to 3000 nM in experiment [2].
`Cc1noc(C)c1-c1cc(-c2ccnn2C)cc2[nH]cnc12` [Example Compound 230, 3,5-dimethyl-4-(6-(1-methyl-1H-pyrazol-5-yl)-1H-benzo[d]imidazol-4-yl)isoxazole]: the IC50 in experiment [1] lay within 300 to 3000 nM; with hIL-6 mRNA, 3000 to 30000 nM; in experiment [2] it was 300 to 3000 nM. Also, the “Cell Proliferation activity” value with Human AML MV-4-11 cells is on record as “Not active”.
As for `COc1ccc(Nc2cc(-c3c(C)noc3C)cc3[nH]cnc23)cc1` [Example Compound 25, 6-(3,5-dimethylisoxazol-4-yl)-N-(4-methoxyphenyl)-1H-benzo[d]imidazol-4-amine], the IC50 (in experiment [1]; in the experiment on Human AML MV-4-11 cells; with hIL-6 mRNA; in experiment [2]) was 300 to 3000 nM each time.
For the compound `Cc1nc2c(Oc3ccccc3)cc(-c3c(C)noc3C)cc2[nH]1` [Example Compound 148, 3,5-dimethyl-4-(2-methyl-4-phenoxy-1H-benzo[d]imidazol-6-yl)isoxazole], the IC50 in experiment [1] is not above 300 nM; in the experiment on Human AML MV-4-11 cells, 300 to 3000 nM; in the experiment on hIL-6 mRNA it was not above 300 nM; in experiment [2], not above 300 nM.
Regarding `CCOc1ncccc1-c1cc(-c2c(C)noc2C)cc2[nH]c(C)nc12` [Example Compound 109, 4-(4-(2-ethoxy-pyridin-3-yl)-2-methyl-1H-benzo[d]imidazol-6-yl)-3,5-dimethyl isoxazole], the IC50 was 300 to 3000 nM in experiment [1], 300 to 3000 nM in the experiment on Human AML MV-4-11 cells, not above 300 nM in the experiment on hIL-6 mRNA and not above 300 nM in experiment [2].
As to `Cc1noc(C)c1-c1cc(-c2ccnn2C)c2nc[nH]c2c1` [Example Compound 16, 3,5-dimethyl-4-(4-(1-methyl-1H-pyrazol-5-yl)-1H-benzo[d]imidazol-6-yl)isoxazole], the IC50 in experiment [1] was 300 to 3000 nM; with Human AML MV-4-11 cells, 300 to 3000 nM; in the experiment on hIL-6 mRNA, not above 300 nM; in experiment [2], not above 300 nM.
Regarding `Cc1conc1Nc1cc(-c2c(C)noc2C)cc2[nH]cnc12` [Example Compound 44, N-(6-(3,5-dimethyl-isoxazol-4-yl)-1H-benzo[d]imidazol-4-yl)-4-methyl-isoxazol-3-amine], the IC50 (in experiment [1]; in the experiment with Human AML MV-4-11 cells; with hIL-6 mRNA; in experiment [2]) was 300 to 3000 nM in each case.
In the case of `Cc1nc2c(-c3cc4ccccc4s3)cc(-c3c(C)noc3C)cc2[nH]1` [Example Compound 145, 4-(4-(benzo[b]thiophen-2-yl)-2-methyl-1H-benzo[d]imidazol-6-yl)-3,5-dimethyl isoxazole], the IC50 in experiment [1] is 300 to 3000 nM; in the experiment with Human AML MV-4-11 cells it was not above 300 nM; in the experiment with hIL-6 mRNA, 300 to 3000 nM; in experiment [2], 300 to 3000 nM.
As to `Cc1nc2c(-c3sc(C)nc3C)cc(-c3c(C)noc3C)cc2[nH]1` [Example Compound 170, 4-(4-(2,4-dimethyl-thiazol-5-yl)-2-methyl-1H-benzo[d]imidazol-6-yl)-3,5-dimethyl isoxazole], the IC50 in experiment [1] is 300 to 3000 nM; with Human AML MV-4-11 cells, 300 to 3000 nM; with hIL-6 mRNA, 300 to 3000 nM; in experiment [2], not above 300 nM.
Consider `Cc1noc(C)c1-c1cc(Nc2cccc(F)c2)c2nc[nH]c2c1` [Example Compound 32, 6-(3,5-dimethyl-isoxazol-4-yl)-N-(3-fluorophenyl)-1H-benzo[d] imidazol-4-amine], for which the IC50 in experiment [1] is 300 to 3000 nM; in the experiment with Human AML MV-4-11 cells, 300 to 3000 nM; in the experiment with hIL-6 mRNA, 300 to 3000 nM; in experiment [2] it was not above 300 nM.
Turning to `Cc1noc(C)c1-c1cc(-c2c(C)noc2C)c2c(cnn2C)c1` [Example Compound 54, 4,4′-(1-methyl-1H-indazole-5,7-diyl)bis(3,5-dimethylisoxazole)], the IC50 was 300 to 3000 nM in experiment [1], not above 300 nM with Human AML MV-4-11 cells, 300 to 3000 nM in the experiment on hIL-6 mRNA and not above 300 nM in experiment [2].
Turning to `Cc1nc2c(N3CCC3=O)cc(-c3c(C)noc3C)cc2[nH]1` [Example Compound 147, 1-(6-(3,5-dimethyl-isoxazol-4-yl)-2-methyl-1H-benzo[d]imidazol-4-yl)azetidin-2-one], the IC50 (in experiment [1]; in the experiment with hIL-6 mRNA; in experiment [2]) was 300 to 3000 nM in each case. Also, the “Cell Proliferation activity” value with Human AML MV-4-11 cells was “Not active”.
Take `Cc1noc(C)c1-c1cc(N(CCc2ccccc2)CCc2ccccc2)c2nc[nH]c2c1` [Example Compound 151, 6-(3,5-dimethyl-isoxazol-4-yl)-N,N-diphenethyl-1H-benzo[d] imidazol-4-amine]: the IC50 (in experiment [1]; with Human AML MV-4-11 cells; with hIL-6 mRNA; in experiment [2]) was 300 to 3000 nM each time.
For the compound `Cc1n[nH]c(C)c1-c1cc(-c2c(C)noc2C)cc2[nH]nc(C)c12` [Example Compound 180, 4-(4-(3,5-dimethyl-1H-pyrazol-4-yl)-3-methyl-1H-indazol-6-yl)-3,5-dimethylisoxazole], the IC50 (in experiment [1]; in the experiment with Human AML MV-4-11 cells; with hIL-6 mRNA; in experiment [2]) was not above 300 nM throughout.
Turning to `Cc1noc(C)c1-c1cc(-c2cccc(C#N)c2C)c2nc(N3CCOCC3)[nH]c2c1` [Example Compound 203, 3-(6-(3,5-dimethyl-isoxazol-4-yl)-2-morpholino-1H-benzo[d]imidazol-4-yl)-2-methyl benzonitrile], the IC50 in experiment [1] was not above 300 nM; with Human AML MV-4-11 cells it was 300 to 3000 nM; in the experiment with hIL-6 mRNA, not above 300 nM; in experiment [2], not above 300 nM.
With `Cc1nc2c(-c3cnccc3C)cc(-c3c(C)noc3C)cc2[nH]1` [Example Compound 53, 3,5-dimethyl-4-(2-methyl-4-(4-methyl-pyridin-3-yl)-1H-benzo[d]imidazol-6-yl)isoxazole], the IC50 in experiment [1] is 300 to 3000 nM; with Human AML MV-4-11 cells, 300 to 3000 nM; in the experiment on hIL-6 mRNA it was not above 300 nM; in experiment [2], not above 300 nM.
For `Cc1nc2c(-c3cnc4ccccc4c3)cc(-c3c(C)noc3C)cc2[nH]1` [Example Compound 163, 3,5-dimethyl-4-(2-methyl-4-(quinolin-3-yl)-1H-benzo[d]imidazol-6-yl)isoxazole], the IC50 in experiment [1] was 300 to 3000 nM; in the experiment on Human AML MV-4-11 cells, 300 to 3000 nM; in the experiment with hIL-6 mRNA it was 300 to 3000 nM; in experiment [2], not above 300 nM.
`Cc1ccc(C#N)cc1-c1cc(-c2c(C)noc2C)cc2[nH]c(NC3CCN(C)CC3)nc12` [Example Compound 205, 3-(6-(3,5-dimethyl-isoxazol-4-yl)-2-((1-methyl-piperidin-4-yl)amino)-1H-benzo[d]imidazol-4-yl)-4-methyl benzonitrile]: the IC50 in experiment [1] was not above 300 nM; in the experiment on Human AML MV-4-11 cells it was 300 to 3000 nM; with hIL-6 mRNA, 300 to 3000 nM; in experiment [2], not above 300 nM.
Regarding `Cc1noc(C)c1-c1cc(-c2c(C)noc2C)c2nc(C3CCOCC3)[nH]c2c1` [Example Compound 228, 4,4′-(2-(tetrahydro-2H-pyran-4-yl)-1H-benzo[d]imidazole-4,6-dyl)bis(3,5-dimethylisoxazole)], the IC50 in experiment [1] is 300 to 3000 nM; in the experiment on Human AML MV-4-11 cells it was 300 to 3000 nM; with hIL-6 mRNA it was 300 to 3000 nM; in experiment [2] it was not above 300 nM.
